Reference: patent publication US11225462B2, “Crystal forms of oxypyridine amide derivative and preparation method therefor” (JIANGSU HENGRUI MEDICINE CO., LTD., priority 2018, dated 2022)

Assays:
Format in all cases: physicochemical
[1] = DVS (dynamic vapor sorption) hygroscopicity characterization; settings: for mass increase under normal conditions: 25° C. and 60% RH; for hygroscopicity according to guidelines for drug hygroscopicity test in China Pharmacopoeia (2015 edition) / mass increase as the humidity increases: 25° C., 10% RH to 80% RH; for mass increase under accelerated test conditions: 70% RH; for mass increase under extreme conditions: 90% RH; for desorption process and adsorption process of the sample: humidity change from 0% to 95%
Protocol: DVS refers to dynamic vapor sorption and is determined using SMS DVS Advantage at 25° C., with the humidity change of 50%-95%-0%-95%-50% and the stepping of 10% (5% for the last step) (the specific humidity range is determined in accordance with the corresponding plot, and the methods listed herein are those most commonly used), and the standard for determination is as follow: dm/dt is not more than 0.02%, and Tmax is not more than 360 min.

[2] = Influencing factor experiments (light, high temperature, high humidity, 30 days)
Protocol: Crystal forms A, B, D and F of the compound of formula (I) were spread and left open to the air, and under conditions of high temperature (40° C. and 60° C.), light (4500 Lux), high humidity (RH 75% and RH 90%), the stability thereof were investigated for a period of 30 days.

[3] = Long-term and accelerated stability experiments (3 months)
Protocol: The long-term (25° C., 60% RH) and accelerated (40° C., 75% RH) stability of crystal form A and crystal form F of the compound of formula (I) were investigated for 3 months.

SMILES: CCC(=O)c1ccc(Cl)cc1-c1cc(=O)n([C@@H](CCOC(C)(C)C)C(=O)Nc2ccc(C(=O)O)cc2)cc1OC [Crystal form A, (S)-4-(4-(tert-butoxy)-2-(4-(5-chloro-2-propionylphenyl)-5-methoxy-2-oxopyridin-1(2H)-yl)butanamido)benzoic acid]
- mass increase under normal conditions [1]: about 1.156%
- hygroscopicity according to guidelines for drug hygroscopicity test in China Pharmacopoeia (2015 edition) [1]: slightly hygroscopic (less than 2% but not less than 0.2%)
- mass increase as the humidity increases [1]: about 1.781%
- mass increase under accelerated test conditions [1]: about 1.479%
- mass increase under extreme conditions [1]: about 2.199%
- crystal form before and after DVS detection (XRPD comparison) [1]: unchanged
- desorption process and adsorption process of the sample [1]: basically coincide
- % Purity ([2]; 40° C., 5 days): 98.74%
- Color and trait ([2]; 40° C., 5 days): Yellow solid
- % Purity ([2]; 40° C., 10 days): 98.70%
- Color and trait ([2]; 40° C., 10 days): Yellow solid
- % Purity ([2]; 40° C., 30 days): 98.48%
- Color and trait ([2]; 40° C., 30 days): Yellow solid
- % Purity ([2]; 60° C., 5 days): 98.73%
- Color and trait ([2]; 60° C., 5 days): Yellow solid
- % Purity ([2]; 60° C., 10 days): 98.68%
- Color and trait ([2]; 60° C., 10 days): Yellow solid
- % Purity ([2]; 60° C., 30 days): 98.50%
- Color and trait ([2]; 60° C., 30 days): Yellow solid
- % Purity ([2]; 4500 Lux, 5 days): 98.74%
- Color and trait ([2]; 4500 Lux, 5 days): Yellow solid
- % Purity ([2]; 4500 Lux, 10 days): 98.74%
- Color and trait ([2]; 4500 Lux, 10 days): Yellow solid
- % Purity ([2]; 4500 Lux, 30 days): 98.75%
- Color and trait ([2]; 4500 Lux, 30 days): Yellow solid
- % Purity ([2]; Initial condition, day 0): 98.76%
- Color and trait ([2]; Initial condition, day 0): Yellow solid
- % Purity ([2]; RH 75%, 5 days): 98.76%
- % Weight gain ([2]; RH 75%, 5 days): 1.15%
- Color and trait ([2]; RH 75%, 5 days): Yellow solid
- % Purity ([2]; RH 75%, 10 days): 98.76%
- % Weight gain ([2]; RH 75%, 10 days): 3.30%
- Color and trait ([2]; RH 75%, 10 days): Yellow solid
- % Purity ([2]; RH 75%, 30 days): 98.76%
- % Weight gain ([2]; RH 75%, 30 days): 5.85%
- Color and trait ([2]; RH 75%, 30 days): Yellow solid
- % Purity ([2]; RH 90%, 5 days): 98.75%
- % Weight gain ([2]; RH 90%, 5 days): 3.18%
- Color and trait ([2]; RH 90%, 5 days): Yellow solid
- % Purity ([2]; RH 90%, 10 days): 98.75%
- % Weight gain ([2]; RH 90%, 10 days): 8.14%
- Color and trait ([2]; RH 90%, 10 days): Yellow solid
- % Purity ([2]; RH 90%, 30 days): 98.76%
- % Weight gain ([2]; RH 90%, 30 days): 11.37%
- Color and trait ([2]; RH 90%, 30 days): Yellow solid
- physical and chemical stability (conclusion) ([2]; light, 40° C., 60° C., 75% RH or 90% RH for 30 days): good physical and chemical stability
- % Purity 1 month ([3]; 25° C., 60% RH): 98.80%
- % Purity 2 months ([3]; 25° C., 60% RH): 98.77%
- % Purity 3 months ([3]; 25° C., 60% RH): 98.76%
- % Purity Initial condition ([3]; 25° C., 60% RH): 98.79%
- % Purity 1 month ([3]; 40° C., 75% RH): 98.79%
- % Purity 2 months ([3]; 40° C., 75% RH): 98.75%
- % Purity 3 months ([3]; 40° C., 75% RH): 98.74%
- % Purity Initial condition ([3]; 40° C., 75% RH): 98.79%
- physical and chemical stability (conclusion) ([3]; long-term (25° C., 60% RH) and accelerated (40° C., 75% RH) conditions for 3 months): good physical and chemical stability

SMILES: CCC(=O)c1ccc(Cl)cc1-c1cc(=O)n([C@@H](CCOC(C)(C)C)C(=O)Nc2ccc(C(=O)O)cc2)cc1OC [Crystal form B, (S)-4-(4-(tert-butoxy)-2-(4-(5-chloro-2-propionylphenyl)-5-methoxy-2-oxopyridin-1(2H)-yl)butanamido)benzoic acid]
- mass increase under normal conditions [1]: about 1.155%
- hygroscopicity according to guidelines for drug hygroscopicity test in China Pharmacopoeia (2015 edition) [1]: slightly hygroscopic (less than 2% but not less than 0.2%)
- mass increase as the humidity increases [1]: about 1.968%
- mass increase under accelerated test conditions [1]: about 1.530%
- mass increase under extreme conditions [1]: about 3.963%
- crystal form before and after DVS detection (XRPD comparison) [1]: change to crystal form A
- desorption process and adsorption process of the sample [1]: basically coincide
- % Purity ([2]; 40° C., 15 days): 98.99%
- Color and trait ([2]; 40° C., 15 days): Light yellow
- % Purity ([2]; 40° C., 30 days): 98.57%
- Color and trait ([2]; 40° C., 30 days): Light yellow
- % Purity ([2]; 60° C., 15 days): 99.10%
- Color and trait ([2]; 60° C., 15 days): Light yellow
- % Purity ([2]; 60° C., 30 days): 98.60%
- Color and trait ([2]; 60° C., 30 days): Light yellow
- % Purity ([2]; 4500 Lux, 15 days): 99.01%
- Color and trait ([2]; 4500 Lux, 15 days): Yellow solid
- % Purity ([2]; 4500 Lux, 30 days): 98.71%
- Color and trait ([2]; 4500 Lux, 30 days): Yellow solid
- % Purity ([2]; Initial condition, day 0): 99.65%
- Color and trait ([2]; Initial condition, day 0): Light yellow
- % Purity ([2]; RH 75%, 15 days): 99.62%
- % Weight gain ([2]; RH 75%, 15 days): 6.76%
- Color and trait ([2]; RH 75%, 15 days): Light yellow
- % Purity ([2]; RH 75%, 30 days): 99.59%
- % Weight gain ([2]; RH 75%, 30 days): 8.34%
- Color and trait ([2]; RH 75%, 30 days): Light yellow
- % Purity ([2]; RH 90%, 15 days): 99.64%
- % Weight gain ([2]; RH 90%, 15 days): 14.89%
- Color and trait ([2]; RH 90%, 15 days): Light yellow
- % Purity ([2]; RH 90%, 30 days): 99.56%
- % Weight gain ([2]; RH 90%, 30 days): 19.11%
- Color and trait ([2]; RH 90%, 30 days): Light yellow
